Measured values: patent US20260232767A1, “INTERLEUKIN-23 RECEPTOR ANTAGONIST PEPTIDES FOR USE IN THE TREATMENT OF PSORIASIS” (Janssen Pharmaceutica NV, priority 2023, published 2026)

Tested on: subjects with moderate-to-severe plaque psoriasis
Experiment: Safety, adverse events, Example 2 through Week 56
Format: in vivo, human
Description: The LTE safety analysis was based on randomized participants in Example who entered the present long-term extension study and received at least one dose of study intervention (including a partial dose) during the study period.

[1] = 100 mg BID, Week 16 through Week 56
[2] = 100 mg BID, LTE Safety analysis set

CC(=O)NCCCC[C@@H]1NC(=O)[C@H](Cc2c[nH]c3c(C)cccc23)NC(=O)[C@H]([C@@H](C)O)NC(=O)[C@H](CC(N)=O)NC(=O)[C@@H](NC(C)=O)C(C)(C)SSC(C)(C)[C@@H](C(=O)N[C@@H](Cc2ccc(OCCN)cc2)C(=O)N[C@@H](Cc2ccc3ccccc3c2)C(=O)NC2(C(=O)N[C@@H](CCC(=O)O)C(=O)N[C@@H](CC(N)=O)C(=O)N[C@@H](Cc3cccnc3)C(=O)N(C)CC(N)=O)CCOCC2)NC1=O [IL-23 receptor antagonist peptide, Ac-[Pen]*-N-T-[W(7-Me)]-[Lys(Ac)]-[Pen]*-Phe[4-(2-aminoethoxy)]-[2-Nal]-[THP]-E-N-[3-Pal]-Sarc-NH2 (*[Pen]-[Pen]* formdisulfidebond)]
1: Seasonal allergy: number of subjects (50 mg QD, through Week 56) | Skin papilloma: number of subjects (50 mg QD, through Week 56) | Social circumstances: number of subjects (50 mg QD, through Week 56) | Vascular disorders: number of subjects (50 mg QD, through Week 56) | Number of subjects with treatment-emergent AE: Immune system disorders [1] | Number of subjects with treatment-emergent AE: Seasonal allergy [1]
0: Renal mass: number of subjects (50 mg QD, through Week 56) | Retinal vein occlusion: number of subjects (50 mg QD, through Week 56) | Rhinorrhoea: number of subjects (50 mg QD, through Week 56) | Skin laceration: number of subjects (50 mg QD, through Week 56) | Steatohepatitis: number of subjects (50 mg QD, through Week 56) | Subjects with AE leading to discontinuation: Abdominal discomfort (50 mg QD, through Week 56) | Subjects with AE leading to discontinuation: Alanine aminotransferase increased (50 mg QD, through Week 56) | Subjects with AE leading to discontinuation: Aspartate aminotransferase increased (50 mg QD, through Week 56) | Subjects with AE leading to discontinuation: Asthenia (50 mg QD, through Week 56) | Subjects with AE leading to discontinuation: Chills (50 mg QD, through Week 56) | Subjects with AE leading to discontinuation: Ear and labyrinth disorders (50 mg QD, through Week 56) | Subjects with AE leading to discontinuation: Gamma-glutamyltransferase increased (50 mg QD, through Week 56) | Subjects with AE leading to discontinuation: General disorders and administration site conditions (50 mg QD, through Week 56) | Subjects with AE leading to discontinuation: Headache (50 mg QD, through Week 56) | Subjects with AE leading to discontinuation: Insomnia (50 mg QD, through Week 56) | Subjects with AE leading to discontinuation: Investigations (50 mg QD, through Week 56) | Subjects with AE leading to discontinuation: Nervous system disorders (50 mg QD, through Week 56) | Subjects with AE leading to discontinuation: Proctalgia (50 mg QD, through Week 56) | Subjects with AE leading to discontinuation: Psoriasis (50 mg QD, through Week 56) | Subjects with AE leading to discontinuation: Psychiatric disorders (50 mg QD, through Week 56) | Subjects with AE leading to discontinuation: Skin and subcutaneous tissue disorders (50 mg QD, through Week 56) | Subjects with AE leading to discontinuation: Suicide attempt (50 mg QD, through Week 56) | Subjects with AE leading to discontinuation: Transaminases increased (50 mg QD, through Week 56) | Subjects with AE leading to discontinuation: Vertigo (50 mg QD, through Week 56) | Subjects with AE leading to discontinuation: Vomiting (50 mg QD, through Week 56) | Subjects with AE leading to discontinuation: Weight increased (50 mg QD, through Week 56) | Subjects with COVID-19 associated AE: SARS-CoV-2 test positive (50 mg QD, through Week 56) | Subjects with treatment-emergent serious AE: COVID-19 (50 mg QD, through Week 56) | Subjects with treatment-emergent serious AE: Cerebrovascular accident (50 mg QD, through Week 56) | Subjects with treatment-emergent serious AE: Diverticulitis (50 mg QD, through Week 56) | Subjects with treatment-emergent serious AE: Injury, poisoning and procedural complications (50 mg QD, through Week 56) | Subjects with treatment-emergent serious AE: Intervertebral disc protrusion (50 mg QD, through Week 56) | Subjects with treatment-emergent serious AE: Ligament injury (50 mg QD, through Week 56) | Subjects with treatment-emergent serious AE: Neoplasms benign, malignant and unspecified (incl cysts and polyps) (50 mg QD, through Week 56) | Subjects with treatment-emergent serious AE: Nervous system disorders (50 mg QD, through Week 56) | Subjects with treatment-emergent serious AE: Psychiatric disorders (50 mg QD, through Week 56) | Subjects with treatment-emergent serious AE: Respiratory, thoracic and mediastinal disorders (50 mg QD, through Week 56) | Subjects with treatment-emergent serious AE: Suicide attempt (50 mg QD, through Week 56) | Subjects with treatment-emergent serious AE: Tonsillar hypertrophy (50 mg QD, through Week 56) | Subjects with treatment-emergent serious AE: Uterine leiomyoma (50 mg QD, through Week 56) | Subjects with treatment-emergent serious AE: Ventricular dysfunction (50 mg QD, through Week 56) | Suicide attempt: number of subjects (50 mg QD, through Week 56) | Sunburn: number of subjects (50 mg QD, through Week 56) | Thrombocytopenia: number of subjects (50 mg QD, through Week 56) | Thrombocytosis: number of subjects (50 mg QD, through Week 56) | Tonsillar hypertrophy: number of subjects (50 mg QD, through Week 56) | Tooth fracture: number of subjects (50 mg QD, through Week 56) | Type 2 diabetes mellitus: number of subjects (50 mg QD, through Week 56) | Urinary tract disorder: number of subjects (50 mg QD, through Week 56) | Uterine leiomyoma: number of subjects (50 mg QD, through Week 56) | Ventricular dysfunction: number of subjects (50 mg QD, through Week 56) | Vertigo: number of subjects (50 mg QD, through Week 56) | Vitamin D deficiency: number of subjects (50 mg QD, through Week 56) | Number of subjects with treatment-emergent AE: Cholelithiasis [1] | Number of subjects with treatment-emergent AE: Ear and labyrinth disorders [1] | Number of subjects with treatment-emergent AE: Endocrine disorders [1] | Number of subjects with treatment-emergent AE: Eye disorders [1] | Number of subjects with treatment-emergent AE: Eyelid skin dryness [1] | Number of subjects with treatment-emergent AE: Goiter [1] | Number of subjects with treatment-emergent AE: Hepatobiliary disorders [1] | Number of subjects with treatment-emergent AE: Hypertransaminasemia [1] | Number of subjects with treatment-emergent AE: Insomnia [1] | Number of subjects with treatment-emergent AE: Ocular cyst [1] | Number of subjects with treatment-emergent AE: Psychiatric disorders [1] | Number of subjects with treatment-emergent AE: Retinal vein occlusion [1] | Number of subjects with treatment-emergent AE: Vertigo [1] | Subjects who discontinued study agent because of 1 or more adverse events [2] | Subjects with 1 or more Serious Infections and infestations [2] | Subjects with adverse event: Arthralgia [2] | Subjects with adverse event: Bronchitis [2] | Subjects with adverse event: Headache [2] | Subjects with adverse event: Meniscus injury [2] | Subjects with adverse event: Sinusitis [2] | Subjects with adverse event: Vomiting [2] | Subjects with serious adverse event: Cerebrovascular accident [2] | Subjects with serious adverse event: Coronary artery disease [2] | Subjects with serious adverse event: Diverticulitis [2] | Subjects with serious adverse event: Foot deformity [2] | Subjects with serious adverse event: Intervertebral disc protrusion [2] | Subjects with serious adverse event: Ligament injury [2] | Subjects with serious adverse event: Non-cardiac chest pain [2] | Subjects with serious adverse event: Tonsillar hypertrophy [2] | Subjects with serious adverse event: Ventricular dysfunction [2] | Subjects with 1 or more treatment-emergent adverse events leading to discontinuation of study agent (100 mg BID, Week 16-56) | Subjects with AE leading to discontinuation: Alanine aminotransferase increased (100 mg BID, Week 16-56) | Subjects with AE leading to discontinuation: Aspartate aminotransferase increased (100 mg BID, Week 16-56) | Subjects with AE leading to discontinuation: Asthenia (100 mg BID, Week 16-56) | Subjects with AE leading to discontinuation: Chills (100 mg BID, Week 16-56) | Subjects with AE leading to discontinuation: Ear and labyrinth disorders (100 mg BID, Week 16-56) | Subjects with AE leading to discontinuation: Gamma-glutamyltransferase increased (100 mg BID, Week 16-56) | Subjects with AE leading to discontinuation: Gastrointestinal disorders (100 mg BID, Week 16-56) | Subjects with AE leading to discontinuation: General disorders and administration site conditions (100 mg BID, Week 16-56) | Subjects with AE leading to discontinuation: Headache (100 mg BID, Week 16-56) | Subjects with AE leading to discontinuation: Insomnia (100 mg BID, Week 16-56) | Subjects with AE leading to discontinuation: Investigations (100 mg BID, Week 16-56) | Subjects with AE leading to discontinuation: Nervous system disorders (100 mg BID, Week 16-56) | Subjects with AE leading to discontinuation: Proctalgia (100 mg BID, Week 16-56) | Subjects with AE leading to discontinuation: Psoriasis (100 mg BID, Week 16-56) | Subjects with AE leading to discontinuation: Psychiatric disorders (100 mg BID, Week 16-56) | Subjects with AE leading to discontinuation: Skin and subcutaneous tissue disorders (100 mg BID, Week 16-56) | Subjects with AE leading to discontinuation: Vertigo (100 mg BID, Week 16-56) | Subjects with AE leading to discontinuation: Vomiting (100 mg BID, Week 16-56) | Subjects with treatment-emergent AE: Arthralgia (100 mg BID, Week 16-56) | Subjects with treatment-emergent AE: Bronchitis (100 mg BID, Week 16-56) | Subjects with treatment-emergent AE: Gastrointestinal disorders (100 mg BID, Week 16-56)
(2.3%): Seasonal allergy: % of subjects (50 mg QD, through Week 56) | Skin papilloma: % of subjects (50 mg QD, through Week 56) | Social circumstances: % of subjects (50 mg QD, through Week 56) | Vascular disorders: % of subjects (50 mg QD, through Week 56)
(4.7%): Respiratory, thoracic and mediastinal disorders: % of subjects (50 mg QD, through Week 56)
(9.3%): Skin and subcutaneous tissue disorders: % of subjects (50 mg QD, through Week 56)
2: Respiratory, thoracic and mediastinal disorders: number of subjects (50 mg QD, through Week 56)
4: Skin and subcutaneous tissue disorders: number of subjects (50 mg QD, through Week 56)
(2.6%): Subjects with treatment-emergent AE: Immune system disorders (%) [1] | Subjects with treatment-emergent AE: Seasonal allergy (%) [1]
